Patent US10376552B2, “Memory improving composition comprising arillus longan, semen nelumbinis, poria and semen juglandis” (priority 2015, dated 2019)

Key:
[1] = system: scopolamine hydrobromide induced memory acquired disorder in mice; test: Step-down test; format: in vivo, Kunming mice; conditions: 0.1 mg/kg
Method: (§1) Mice were randomly divided into 5 groups, namely, normal control group, model group, low dosage group, high dosage group, positive control drug Huperzine A group (0.1 mg/kg). The mice were intragastrically administered once daily (0.2 mL/10 g). After 30 consecutive days, except the normal control group, the memory acquired disorder model of mice was replicated respectively with 5 mg/kg of scopolamine hydrobromide, and the learning performance of mice was determined with the step-down test.
(§2) In accordance with technical requirements including “technical specifications of health food inspection and evaluation”, the dosage was calculated by conversion of the intended clinical daily dosage on the basis of the body surface area. When orally administered to mice, low and high dosages were arranged for each sample, respectively, which correspond to about 10 and 20 times of intended daily dosage for adults. Namely: low dosage group (1.3 g/kg), high dosage group (2.6 g/kg).
(§3) The time of the first jumping of mice (i.e., latency) and the times of jumping of mice within 5 minutes (i.e., errors times) were tested and recorded with jumping apparatus, and the latency and error times were used as the investigation indexes of the experiment.
60 screened healthy adult Kunming mice were used, with body weight (20-24) g, male, 12 […] in each group. Mice were randomly divided into 5 groups, namely, normal control group (C), model group (M), low dosage group (1.3 g/kg), high dosage (2.6 g/kg), positive control drug Huperzine A group (0.1 mg/kg). Except that the normal control group and model group were intragastrically administered with 0.5% CMCNA (0.2 mL/10 g), other groups were intragastrically administered with corresponding drugs once daily for 30 consecutive days. Training was started 1 h after administration in the morning on day 30. Except the normal control group, the memory acquired disorder model of mice was replicated respectively with 2 mg/kg scopolamine hydrobromide 20 minutes before training. Each group was administered in parallel, and the learning performance of mice was determined by step-down test. […]
(1) adaptive period: the animals were placed on the platform, at that time the electric fence was not energized, the latency of jumping down the platform was recorded, the animals were allowed to freely explore 10 s in the test box after jumping down the platform, and were then returned to the cage; […]
as §3, with “The learning performance was tested after 24 h. The” for “The”

[2] = system: scopolamine hydrobromide-induced mice memory acquired disorder model; test: Morris water maze, space exploration test; format: in vivo; conditions: 0.1 mg/kg
Method: as §1, with “groups evenly,” for “groups,”, “scopolamine,” for “5 mg/kg of scopolamine hydrobromide,”, “Morris water maze test (scopolamine-induced orientation navigation and spatial memory experiment).” for “step-down test.”
as §2
(§4) As for the positive control drug Huperzine A, the clinical adult dosage is about 0.4 mg/day, and the dosage for mice is 0.06 mg/kg, which is calculated by conversion on the basis of the body surface area. 0.1 mg/kg was used in the present experiment.
(§5) Morris water maze test was carried out according to the method in references. The orientation navigation test was started from the 25th day, and lasted for 4 consecutive days. The time of finding the platform of mice within 90 s (the escape latency), swimming distance, the swimming time proportion in the quadrant of the original platform, times of crossing the location of the original platform (i.e., shuttle times), and the time of first arrival at the original platform were recorded.
(§6) Mice were randomly divided into 5 groups, namely, normal control group, model group, low dosage group (1.3 g/kg), high dosage group (2.6 g/kg), positive control drug Huperzine A group (0.1 mg/kg). The mice were intragastrically administered once daily (0.2 mL/10 g). After 30 consecutive days, except the normal control group, the memory acquired disorder model of mice was replicated respectively with scopolamine, and the learning performance of mice was determined with the Morris water maze test (scopolamine-induced orientation navigation and spatial memory experiment).
(§7) In this example, respective groups of animals were adaptively fed for 3 days before intragastrical administration. The normal control group and model control group were intragastrically administered once daily with equal volume of 0.5% CMCNA, respectively. The administration was carried out with a volume of 0.2 mL/10 g body weight for 30 consecutive days. Morris water maze test was carried out according to the method in literatures. The orientation navigation test was started from the 25th day, and lasted for 4 days. The time of finding the platform of mice within 90 s (the escape latency), swimming distance, the swimming time proportion in the quadrant of the original platform, times of crossing the location of the original platform (i.e., shuttle times), and the time of first arrival at the original platform were recorded.

[3] = system: scopolamine memory acquired disorder model of mice; test: Morris water maze, orientation navigation test; format: in vivo; conditions: 0.1 mg/kg
Method: as §6, with “groups evenly,” for “groups,”, “group,” for “group (1.3 g/kg),”, “group,” for “group (2.6 g/kg),”
as §2, §4, §5, §6, §7

[4] = clinical use as cholinesterase inhibitor; cited from earlier work

For C/C=C1\[C@H]2C=C(C)C[C@]1(N)c1ccc(=O)[nH]c1C2 [Huperzine A], the Latency [1] was 146.20 ± 99.97 s, the “error times compared with the model group” value ([1]; p<0.05) was “significantly reduced” and the “latency compared with the model group” value ([1]; p<0.05) was “significantly prolonged”. For the same molecule, the Error times ([1]; within 5 minutes) was 1.00 ± 0.82, the Shuttle times [2] was 2.2 ± 0.5 and the “Time proportion of crossing the original quadrant” value [2] was 22.6 ± 7.9%. The “time of first arrival at the platform” value [2] was 27.0 ± 12.1 s, the “time of first arrival at the platform” value ([2]; p<0.05) was “significantly prolonging” and the “times of crossing the location of the original platform” value ([2]; p<0.05) was “significantly decreased”. For the same molecule, the swimming distance ([3]; Day 1) was 892.9 ± 226.6 cm, the swimming latency ([3]; Day 1) was 68.3 ± 15.6 s and the swimming distance ([3]; Day 2) was 747.2 ± 93.5 cm. The swimming latency ([3]; Day 2) was 59.1 ± 13.8 s, the swimming distance ([3]; Day 3) was 683.3 ± 112.8 cm and the swimming latency ([3]; Day 3) was 56.3 ± 13.1 s. For the same molecule, the swimming distance ([3]; Day 4) was 669.6 ± 128.3 cm, the swimming latency ([3]; Day 4) was 48.8 ± 11.1 s and the side-effects after ingestion [4] was “nausea, dizziness, sweating, abdominal pain, and blurred vision”.
